Where a name gives a salt, the structure may show the parent alone.
Columns and labels:
primary human AML cells [1] = experiment: Secondary screen: dose response, five serial dilutions (CD34/CD15 flow cytometry); format: cell-based; parameters: key to 2ndary screen criteria fulfilled: 0 = no; 1 = yes; settings: for 2ndary screen criteria fulfilled: ≧50% increase CD34+CD15− (%) and cell counts and ≧50% gated cells in at least one dose; for % increase CD34+CD15− (%) 2ndary screen / % increase CD34+CD15− (cell counts) 2ndary screen: at optimal concentration, compared to DMSO
Experimental: In the primary screen cells were plated in transparent 384-wellplates (Greiner, 781182) at a density of 5,000 cells in 50 μl final volume per well. Compounds were tested at 2 μM (commercial libraries) or 1 μg/ml (Medicinal Chemistry Facility, IRIC). […] For validation experiments AML cells were grown in 384-well plates with 3-8 replicates per condition.
Flow cytometry was performed on an LSR™ II cytometer equipped with an HTS-device (BD Bioscience, Primary and Secondary screens and in vitro validation experiments) or on a BD Canto™ II cytometer (BD Bioscience, Xenotransplantation and CellTrace Violet™ experiments). Cells were stained for 30 minutes at 4° C. protected from light if not otherwise indicated (CellTrace Violet™ staining). The following flow cytometry-antibodies were used: CD45 Pacific Blue (BioLegend 304029), CD33 PE (BD Bioscience 555450), CD34 APC (BD Bioscience 555824), CD3 FITC (BD Bioscience 555332), CD19 PE-Cy7 (BD Bioscience 557835), CD15 PE (BD Bioscience 555401), and anti-mouse CD45.1 APC-efluor 730 (eBioscience 47-0453-82). CD34 intensities in flow cytometry plots were set at high levels on day 0 to allow tracing of non-predictable decreases of intensities during 7 days in culture.

primary human AML cells [2] = experiment: Primary screen: differentiation of primary human AML cells in vitro (CD34/CD15, HTS flow cytometry); settings: for percent gated cells (viability): 2 μM (commercial libraries) or 1 μg/ml (IRIC); for % increase CD34+ (%) / % increase CD34+ (cell counts) / % increase CD34+CD15− (cell counts): compared to DMSO; for % increase CD34+CD15− (%): compared to DMSO ((compound − DMSO)/DMSO*100)
Experimental: AML cells were thawed in 37° C. water bath and 1:10 diluted in prewarmed Iscove's modified Dulbecco's medium (IMDM) containing 20% FBS and DNase 100 μg/ml. […] When compounds were added to the culture medium, final DMSO concentrations were 0.1% in all in vitro experiments and 0.01% when cultured cells were transplanted into NSG-mice.
Compounds were tested at 2 μM (commercial libraries) or 1 μg/ml (Medicinal Chemistry Facility, IRIC). […] For validation experiments AML cells were grown in 384-well plates with 3-8 replicates per condition.
Flow cytometry was performed on an LSR™ II cytometer equipped with an HTS-device (BD Bioscience, Primary and Secondary screens and in vitro validation experiments) or on a BD Canto™ II cytometer (BD Bioscience, Xenotransplantation and CellTrace Violet™ experiments). Cells were stained for 30 minutes at 4° C. protected from light if not otherwise indicated (CellTrace Violet™ staining). […] CD34 intensities in flow cytometry plots were set at high levels on day 0 to allow tracing of non-predictable decreases of intensities during 7 days in culture.

| Compound | 2ndary screen criteria fulfilled (primary human AML cells [1]) | percent gated cells (viability) (primary human AML cells [2]) | % increase CD34+ (%) (primary human AML cells [2]) | % increase CD34+ (cell counts) (primary human AML cells [2]) | % increase CD34+CD15− (cell counts) (primary human AML cells [2]) | % increase CD34+CD15− (%) (primary human AML cells [2]) | % increase CD34+CD15− (%) 2ndary screen (primary human AML cells [1]) | % increase CD34+CD15− (cell counts) 2ndary screen (primary human AML cells [1]) |
| --- | --- | --- | --- | --- | --- | --- | --- | --- |
| O=c1c(O)c(-c2ccc(O)cc2)oc2cc(O)cc(O)c12 [UM0118952, Kaempferol] | 0 | 78.90% | 26.34% | −2.29% | 44.57% | 87.18% |  |  |
| COc1cccc2oc(-c3ccccc3)cc(=O)c12 [UM0113898, 5-Methoxyflavone] | 1 |  | 36.28% | 20.92% | 61.47% | 82.42% | 105.80% | 119.91% |
| CO[C@H]1C[C@@H]2CC[C@@H](C)[C@@](O)(O2)C(=O)C(=O)N2CCCC[C@H]2C(=O)O[C@H]([C@H](C)C[C@@H]2CC[C@@H](O)[C@H](OC)C2)CC(=O)[C@H](C)/C=C(\C)[C@@H](O)[C@@H](OC)C(=O)[C@H](C)C[C@H](C)/C=C/C=C/C=C/1C [UM0119219, Rapamycin] | 0 | 72.30% | 27.40% | −57.86% | −44.01% | 68.93% |  |  |
| COc1ccc(-c2coc3c(O)c(OC)ccc3c2=O)cc1 [UM0121179, Retusin 7-Methylether] | 1 | 82.10% | 58.87% | 59.80% | 125.38% | 124.10% | 218.84% | 199.22% |
| Benzalkonium chloride [UM0120664] | 0 |  | 45.92% | −73.74% | −57.89% | 133.07% |  |  |
| COc1c(O)cc2oc(-c3ccc(O)c(O)c3)cc(=O)c2c1O [UM0119305, 6-Methoxyluteolin] | 0 | 83.60% | 31.39% | −2.77% | 40.01% | 88.83% |  |  |
| COc1ccc(-c2cc(=O)c3c(O)cc(O)cc3o2)cc1O [UM0119400, Diosmetine] | 0 |  | 31.48% | −19.72% | 20.75% | 97.56% |  |  |
| C[C@@H]1Cc2c(Cl)cc(C(=O)N[C@@H](Cc3ccccc3)C(=O)O)c(O)c2C(=O)O1 [UM0119328, Ochratoxin A] | 0 | 82.10% | 14.82% | 1.28% | 34.37% | 52.56% |  |  |
| CCCCCCC(=O)CCCCCC/C=C/C[C@@H](O)[C@H](O)[C@@](N)(CO)C(=O)O [UM0119199, Myriocin] | 0 | 79.90% | 1.19% | −36.05% | 9.44% | 72.63% |  |  |
| COc1cc(-c2oc3cc(O)cc(O)c3c(=O)c2O)ccc1O [UM0119319, Isorhamnetine] | 0 |  | 37.41% | 28.67% | 62.94% | 74.28% |  |  |
| O=c1c2ccccc2oc2ccccc12 [UM0120986, Xanthone] | 0 | 81.40% | 34.82% | 28.81% | 86.26% | 94.85% |  |  |
| COc1ccc(-c2oc3cc(O)cc(O)c3c(=O)c2O)cc1 [UM0119298, Kaempferide] | 1 | 82.40% | 42.31% | 25.55% | 75.15% | 98.71% | 105.80% | 114.93% |
| O[C@H]1[C@H]2[C@H](O)CCCN2C[C@H]1O [UM0119223, Swainsonine] | 0 | 81.90% | 30.00% | −43.81% | −22.20% | 79.57% |  |  |
| O=c1cc(-c2ccccc2)oc2cc(O)cc(O)c12 [UM0118950, Chrysin] | 1 |  | 47.05% | 48.57% | 108.30% | 105.68% | 194.69% | 172.16% |
| C[C@]12CC[C@H](O)C[C@H]1CC[C@@H]1[C@@H]2CC[C@]2(C)[C@@H](C3=CC(=O)OC3)[C@@H](O)C[C@]12O [UM0119342, Gitoxigenin] | 0 | 77.10% | 48.71% | −44.85% | −40.00% | 62.33% |  |  |
| O=C(Nc1ccc2c(c1)OCCO2)c1sc2ccccc2c1Cl [UM0045609, 3-chloro-N-(2,3-dihydro-1,4-benzodioxin-6-yl)-1-benzithiophene-2-carboxamide] | 1 |  | 46.63% | 56.89% | 109.14% | 94.85% | 204.83% | 198.60% |
| C[C@]12CCC(=O)C=C1CC[C@@H]1[C@@H]2CC[C@]2(C)C(=O)CC[C@@H]12 [UM0119559, 4-Androstene-3,17-dione] |  | 82.30% | 1.57% | −20.76% | 20.14% | 53.81% |  |  |
| COc1ccc(-c2cc(=O)c3ccccc3o2)cc1 [UM0070201, 4′-Methoxyflavone] |  | 78.10% | 28.71% | 20.27% | 58.22% | 69.03% |  |  |
| N[C@@H]1C[C@H]1c1ccccc1 [UM0118428, Tranylcypromine hydrochloride] | 0 | 77.80% | 49.50% | −11.95% | −10.11% | 52.70% |  |  |
| COc1ccc(C2CC(=O)c3ccc(OC)cc3O2)cc1 (stereo not shown) [UM0120851, Liquiritigenin dimethylether] |  | 81.20% | 34.97% | 31.66% | 59.21% | 63.25% |  |  |
